The text below walks through data of patent publication US20190049436A1, “MODULATION OF ASYMMETRIC PROLIFERATION” (THE GENERAL HOSPITAL CORPORATION, priority 2012, published 2019).

Entries after “also recorded” stand apart in the source; their conditions may differ. Where a SMILES comes first, the peptide text is derived from it. The star is where a group is joined. Cbz = O=C(OCc1ccccc1)*

One assay relates to HCT116 cells. Put plainly: Confocal immunofluorescence scoring of asymmetrically dividing and G0-like (H3K9me2low/MCM2low/HES1high) cells. Type of assay: cell-based, human. To be noted: for frequency of asymmetrically dividing and G0-like cells / frequency of G0-like cells: HCT116; for frequency of asymmetrically dividing and G0-like cells: small molecule for 72 h at the single dose (low, non-antiproliferative or target-suppressing), vs DMSO control; for production of G0-like cells: wild-type HCT116, target-suppressing doses, 72 hours or 144 hours; for frequency of G0-like cells: proteasome inhibitor 1 μM for 24 h, doses that do not affect overall cell proliferation. The procedure:
(§1) Drug treatment in vitro. Cells were seeded onto collagen IV-coated coverslips, allowed to attach overnight, and treated with vehicle (DMSO) or AKT1/2 inhibitor (HCT116: 20μM; MCF7: 2 μM) (Sigma), MK2206 (HCT116: 10 μM; MCF7: 3 μM) (Selleck Chemicals), TORIN1 (HCT116: 0.5 μM; MCF7: 0.25 μM) (Tocris Bioscience), AZD8055 (HCT116: 0.7 μM; MCF7: 0.1 μM) (Selleck Chemicals), INK128 (HCT116: 0.05 μM; MCF7: 0.01 μM) (Active Biochem), Palomid 529 (HCT116: 10 μM; MCF7: 20 μM) (Selleck Chemicals), (Rapamycin (HCT116: 20 μM; MCF7: 20 μM)(Sigma), RAD-001 (HCT116: 10 μM; MCF7: 5 μM) (Selleck Chemicals), (AZD5363 (HCT116: 50 μM; MCF7: 5 μM) (Active Biochem), GDC0068 (HCT116: 50 μM; MCF7: 5 μM) (Active Biochem) for 72 h and Bortezemib (HCT116: 1 μM; MCF7: 4 μM) (Selleck Chemicals) MG-132 (vehicle: ethanol) (HCT116: 1 μM; MCF7: 10 μM), for 24 h.
(§2) Immunofluorescence staining. For bulk populations and for colonies, cells were grown directly on collagen IV-coated coverslips (Sigma). Cells were fixed in 3.7% formalin, permeabilized using 0.1% Triton X-100, and treated with 0.1% SDS. They were blocked in 1% BSA and then incubated with primary antibody (α-H3K9me2 (Abcam); α-MCM2 and α-Tubulin (Cell Signaling), α-Hes1 and α-TTC3 (Abnova)) diluted in blocking solution, washed, and incubated with the respective secondary antibody. Cells were mounted using hard-set mounting media containing DAPI (Vector Laboratories). All secondary antibodies were Alexa Fluor conjugates (488, 555, 568, 633, and 647) (Invitrogen). Immunofluorescence imaging (on a Nikon Eclipse Ti A1R-A1 confocal microscope) and live-cell imaging (on the Nikon Biostation CT platform) were performed as previously described (1).
(§3) Drug treatment in vitro. Cells were seeded onto collagen IV-coated coverslips, allowed to attach overnight, and treated with vehicle (DMSO) or AKT1/2 inhibitor (HCT116: 20 μM; MCF7: 2 μM) (Sigma), MK2206 (HCT116: 10 μM; MCF7: 3 μM) (Selleck Chemicals), TORIN1 (HCT116: 0.5 μM; MCF7: 0.25 μM) (Tocris Bioscience), AZD8055 (HCT116: 0.7 μM; MCF7: 0.1 μM) (Selleck Chemicals), INK128 (HCT116: 0.05 μM; MCF7: 0.01 μM) (Active Biochem), Palomid 529 (HCT116: 10 μM; MCF7: 20 μM) (Selleck Chemicals), (Rapamycin (HCT116: 20 μM; MCF7: 20 μM)(Sigma), RAD-001 (HCT116: 10 μM; MCF7: 5 μM) (Selleck Chemicals), BKM-120 (HCT116: 1.5 μM; MCF7: 0.5 μM) (Active Biochem), FAK inhibitors (PF-562271: 1 μM Pfizer) and NVP-TAE226 : 1 μM (Novartis), for both cell lines) for 72 h and Bortezemib (HCT116: 1 μM; MCF7: 4 μM) (Selleck Chemicals) MG-132 (vehicle: ethanol) (HCT116: 1 μM; MCF7: 10 μM), for 24 h.
as §2, with “(a-H3K9me2” for “(α-H3K9me2”, “A1R-A1™” for “A1R-A1”, “described7. Slides coated with Type-I collagen (control) and AlignCol™ woven with large collagen fibers (100-200 nm) (Advanced Biomatrix) were incubated for 1 hour in 70% ethanol and then washed with PBS. Cells were then plated on the slides and processed for immunofluorescence.” for “described (1).”
(§4) Antibody activation and inhibition. […]

For another assay, the system named is MCF7 cells. The assay is described as above. Type of assay: cell-based, human. To be noted: for frequency of asymmetrically dividing and G0-like cells / frequency of G0-like cells: MCF7; for frequency of asymmetrically dividing and G0-like cells: small molecule for 72 h at the single dose (low, non-antiproliferative or target-suppressing), vs DMSO control; for production of G0-like cells: wild-type MCF7, target-suppressing doses, 72 hours or 144 hours; for frequency of G0-like cells: proteasome inhibitor for 24 h (Bortezomib 4 μM, MG-132 10 μM), doses that do not affect overall cell proliferation. As to the method:
as §1, §2, §3
as §2, with “(a-H3K9me2” for “(α-H3K9me2”, “A1R-A1™” for “A1R-A1”, “described7. Slides coated with Type-I collagen (control) and AlignCol™ woven with large collagen fibers (100-200 nm) (Advanced Biomatrix) were incubated for 1 hour in 70% ethanol and then washed with PBS. Cells were then plated on the slides and processed for immunofluorescence.” for “described (1).”
as §4

On to `Nc1cc(C(F)(F)F)c(-c2cc(N3CCOCC3)nc(N3CCOCC3)n2)cn1` [BKM-120], for which, in the assay on HCT116 cells, the “frequency of asymmetrically dividing and G0-like cells” value was “not suppressed”; the “production of G0-like cells” value is “not suppressed”. Besides, in the assay on MCF7 cells, the “frequency of asymmetrically dividing and G0-like cells” value is “not suppressed”; the “production of G0-like cells” value is given as “not suppressed”.
As to `CC(C)C[C@H](NC(=O)[C@H](Cc1ccccc1)NC(=O)c1cnccn1)B(O)O` [Bortezomib], the “frequency of G0-like cells” value is on record as “significantly reduced” in the assay with HCT116 cells, “reduced” in the assay on HCT116 cells (listed as bortezomib), “significantly reduced” in the assay on MCF7 cells and “reduced” in the assay with MCF7 cells (listed as bortezomib).
For the compound `NC1(c2ccc(-c3nc4ccn5c(=O)[nH]nc5c4cc3-c3ccccc3)cc2)CCC1` [MK2206], the “frequency of asymmetrically dividing and G0-like cells” value with HCT116 cells and in the assay on MCF7 cells was “dramatically increases” in each case.
On to `COc1ccc(COc2cc3oc(=O)c4cc(C(C)O)ccc4c3cc2OC)cc1` (centres unmarked) [Palomid-529], for which the “frequency of asymmetrically dividing and G0-like cells” value in the assay on HCT116 cells and with MCF7 cells was “significantly reduced” throughout.
Consider `CC(C)NC[C@@H](C(=O)N1CCN(c2ncnc3c2[C@H](C)C[C@H]3O)CC1)c1ccc(Cl)cc1` [GDC0068], for which the “frequency of asymmetrically dividing and G0-like cells” value with HCT116 cells and with MCF7 cells was “did not reduce” each time.
In the case of `CC(C)C[C@@H](C=O)NC(=O)[C@H](CC(C)C)NC(=O)[C@H](CC(C)C)NC(=O)OCc1ccccc1` [MG-132] (Cbz-Leu-Leu-Leu-aldehyde), the “frequency of G0-like cells” value with HCT116 cells and with MCF7 cells was “significantly reduced” throughout.
On to AZD5363, for which the “frequency of asymmetrically dividing and G0-like cells” value with HCT116 cells and in the assay with MCF7 cells was “did not reduce” in each case.
`CO[C@H]1C[C@@H]2CC[C@@H](C)[C@@](O)(O2)C(=O)C(=O)N2CCCC[C@H]2C(=O)O[C@H]([C@H](C)C[C@@H]2CC[C@@H](OCCO)[C@H](OC)C2)CC(=O)[C@H](C)/C=C(\C)[C@@H](O)[C@@H](OC)C(=O)[C@H](C)C[C@H](C)/C=C/C=C/C=C/1C` [RAD-001]: in the assay on HCT116 cells, the “frequency of asymmetrically dividing and G0-like cells” value is listed as “did not suppress; also recorded: not suppressed”; the “production of G0-like cells” value is given as “not suppressed”. In the assay with MCF7 cells, the “frequency of asymmetrically dividing and G0-like cells” value is “did not suppress; also recorded: not suppressed”; the “production of G0-like cells” value is given as “not suppressed”.
On to `CN(c1ncccc1CNc1nc(Nc2ccc3c(c2)CC(=O)N3)ncc1C(F)(F)F)S(C)(=O)=O` [PF-562271], for which the “frequency of asymmetrically dividing and G0-like cells” value with HCT116 cells and in the assay with MCF7 cells was “increased” in each case.
On to `CCC(=O)N1CCN(c2ccc(-n3c(=O)ccc4cnc5ccc(-c6cnc7ccccc7c6)cc5c43)cc2C(F)(F)F)CC1` [TORIN1], for which the “frequency of asymmetrically dividing and G0-like cells” value with HCT116 cells and with MCF7 cells was “significantly reduced” each time.
In the case of `COc1ccc(-c2ccc3c(N4CCOC[C@@H]4C)nc(N4CCOC[C@@H]4C)nc3n2)cc1CO` [AZD8055], the “frequency of asymmetrically dividing and G0-like cells” value in the assay on HCT116 cells and in the assay with MCF7 cells was “significantly reduced” in each case.
On to `CC(C)n1nc(-c2ccc3oc(N)nc3c2)c2c(N)ncnc21` [INK-128], for which the “frequency of asymmetrically dividing and G0-like cells” value with HCT116 cells and with MCF7 cells was “significantly reduced” throughout.
Take `CNC(=O)c1ccccc1Nc1nc(Nc2ccc(N3CCOCC3)cc2OC)ncc1Cl` [NVP-TAE226]: the “frequency of asymmetrically dividing and G0-like cells” value with HCT116 cells and in the assay on MCF7 cells was “increased” throughout.
